Assay results taken from paper PMC3676450 (Journal of medicinal chemistry, 2013).

Legend:
hM5 mAcChR = target: T1, hM5 mAcChR (Homo sapiens, UniProt P08912); experiment: [3H]NMS binding to membranes from CHO-K1 cells expressing hM5
T1 sequence (P08912 1-532): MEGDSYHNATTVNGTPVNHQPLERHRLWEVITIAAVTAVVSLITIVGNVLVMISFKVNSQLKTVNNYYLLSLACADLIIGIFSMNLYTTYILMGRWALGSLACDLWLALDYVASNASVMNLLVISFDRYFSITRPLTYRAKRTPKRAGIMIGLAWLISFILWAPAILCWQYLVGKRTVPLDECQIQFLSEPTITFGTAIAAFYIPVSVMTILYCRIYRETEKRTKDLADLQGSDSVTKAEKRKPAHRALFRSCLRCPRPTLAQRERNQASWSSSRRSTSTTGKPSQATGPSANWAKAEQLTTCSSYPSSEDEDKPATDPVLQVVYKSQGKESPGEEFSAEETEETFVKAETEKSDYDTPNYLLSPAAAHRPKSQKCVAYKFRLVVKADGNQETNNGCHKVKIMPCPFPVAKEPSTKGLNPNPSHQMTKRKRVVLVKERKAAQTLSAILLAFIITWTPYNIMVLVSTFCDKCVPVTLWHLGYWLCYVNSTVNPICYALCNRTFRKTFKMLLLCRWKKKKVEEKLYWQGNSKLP

hM1 mAcChR = target: T2, hM1 mAcChR (Homo sapiens, UniProt P11229); experiment: [3H]N-methylscopolamine; assay type: binding
T2 sequence (P11229 1-460): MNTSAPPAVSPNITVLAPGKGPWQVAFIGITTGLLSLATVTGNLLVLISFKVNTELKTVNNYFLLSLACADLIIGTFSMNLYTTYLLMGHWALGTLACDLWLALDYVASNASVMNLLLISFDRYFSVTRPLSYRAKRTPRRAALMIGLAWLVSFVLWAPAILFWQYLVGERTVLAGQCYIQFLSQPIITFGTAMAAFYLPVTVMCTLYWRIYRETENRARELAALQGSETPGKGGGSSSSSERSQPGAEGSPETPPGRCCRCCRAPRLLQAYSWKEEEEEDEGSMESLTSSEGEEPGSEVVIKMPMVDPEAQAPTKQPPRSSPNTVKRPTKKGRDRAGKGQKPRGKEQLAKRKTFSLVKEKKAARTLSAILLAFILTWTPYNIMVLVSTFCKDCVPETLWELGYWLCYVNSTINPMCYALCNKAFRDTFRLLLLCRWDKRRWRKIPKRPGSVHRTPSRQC

Structure (SMILES) | binding affinity at M5 receptor (in words) (hM5 mAcChR) | binding affinity at M1 receptor (in words) (hM1 mAcChR) | M1/M5 (hM5 mAcChR) | M2/M5 (hM5 mAcChR) | M3/M5 (hM5 mAcChR) | M4/M5 (hM5 mAcChR) | further results
CCN1CCC(c2ccccc2)=C(C(=O)OCCc2cccc(OC)c2)C1 [Compound 18] |  |  |  |  |  |  | increase in binding affinity at M5 relative to compound 8 (hM5 mAcChR): 3 fold; increase in binding affinity at M5 relative to compound 17 (hM5 mAcChR): 8 fold
CCN1CCC(c2ccccc2)=C(C(=O)OCCc2ccc(S(C)(=O)=O)cc2)C1 [Compound 27] | little affinity | little affinity |  |  |  |  | 
CCN1CCC(c2ccccc2)=C(C(=O)OCCc2ccc3c(c2)CCO3)C1 [Compound 28] |  |  | 1,390 (6.0) | >100,000 (>435) | 31,100 (135) | 10,500 (46) | 
COc1ccc(CCOC(=O)C2=C(c3ccccc3)CCN(Cc3ccc(OC)cc3)C2)cc1 [Compound 40] | eliminated affinity | eliminated affinity |  |  |  |  | 
COc1ccc(CCOC(=O)C2=C(c3ccccc3)CCN(C)C2)cc1 [Compound 42] |  |  |  |  |  |  | increase in binding affinity at M5 relative to compound 8 (hM5 mAcChR): 14 fold; increase in binding affinity at M1 relative to compound 8 (hM1 mAcChR): 8 fold
CCCN1CCC(c2ccccc2)=C(C(=O)OCCc2ccc(OC)cc2)C1 [Compound 43] | eliminated affinity | eliminated affinity |  |  |  |  | 
CCCCN1CCC(c2ccccc2)=C(C(=O)OCCc2ccc(OC)cc2)C1 [Compound 44] | eliminated affinity | eliminated affinity |  |  |  |  | 
CN1CCC(c2ccccc2)=C(C(=O)OCCc2ccc3c(c2)CCO3)C1 [Compound 45] |  |  | 290 (4.8) | 1,170 (20) | 2,840 (47) | 1,890 (32) | 
CN1CCC(c2ccccc2)=C(C(=O)OCCc2cccc3ccccc23)C1 [Compound 57] |  |  | 24,400 (4.8) | >100,000 (>20) | >100,000 (>20) | >100,000 (>20) | 
CN1CCC(c2ccccc2F)=C(C(=O)OCCc2ccc3c(c2)CCO3)C1 [Compound 63] |  |  | 5,270 (7.1) | 540 (0.7) | 4,890 (6.6) | 5,740 (7.8) | 
COc1ccc(CCOC(=O)C2=C(c3cccc(F)c3)CCN(C)C2)cc1OC [Compound 66] |  |  |  | >100,000 (>30) | >100,000 (>30) | >100,000 (>30) | 
CN1CC=C(c2ccccc2C(=O)OCCc2ccc3c(c2)CCO3)CC1 [Compound 89] | complete loss of binding affinity | complete loss of binding affinity |  |  |  |  | 
